Assay results: the supplement of paper PMC10307832

What was measured:
Experiment in all cases: relative viability (nuclei count vs DMSO), 5 days (fraction); higher = more cells survive
NVP-TAE684 + Lapatinib = compound: COc1cc(N2CCC(N3CCN(C)CC3)CC2)ccc1Nc1ncc(Cl)c(Nc2ccccc2S(=O)(=O)C(C)C)n1 [NVP-TAE684] + CS(=O)(=O)CCNCc1ccc(-c2ccc3ncnc(Nc4ccc(OCc5cccc(F)c5)c(Cl)c4)c3c2)o1 [Lapatinib] (partner 2 µM)
Method in brief: (§1)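 Dosing by pin tool came one day after lung cancer cell lines were seeded in 1536-well plates, using either one drug or a fixed anchor-drug dose plus five library-drug doses (not always all listed) in √10 steps. After 5 days, nuclei were counted on 4× images. Relative viability is treated-well nuclei count divided by vehicle-well nuclei count, and values are medians of duplicate plates.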

Vandetanib + Vorinostat = compound: COc1cc2/c(=N/c3ccc(Br)cc3F)nc[nH]c2cc1OCC1CCN(C)CC1 [Vandetanib] + O=C(CCCCCCC(=O)Nc1ccccc1)NO [Vorinostat] (partner 1 µM)
Method in brief: as §1

CUDC-101 + Dasatinib = compound: C#Cc1cccc(Nc2ncnc3cc(OC)c(OCCCCCCC(=O)NO)cc23)c1 [CUDC-101] + Cc1nc(Nc2ncc(C(=O)Nc3c(C)cccc3Cl)s2)cc(N2CCN(CCO)CC2)n1 [Dasatinib] (partner 0.075 µM)
Method in brief: as §1

CUDC-101 + Palbociclib = compound: C#Cc1cccc(Nc2ncnc3cc(OC)c(OCCCCCCC(=O)NO)cc23)c1 [CUDC-101] + CC(=O)c1c(C)c2cnc(Nc3ccc(N4CCNCC4)cn3)nc2n(C2CCCC2)c1=O [Palbociclib] (partner 0.5 µM)
Method in brief: as §1

Cell Line	relative viability (NVP-TAE684 + Lapatinib; first compound 0.2 µM)	relative viability (NVP-TAE684 + Lapatinib; first compound 0.6325 µM)	relative viability (NVP-TAE684 + Lapatinib; first compound 2 µM)	relative viability (Vandetanib + Vorinostat; first compound 0.02 µM)	relative viability (Vandetanib + Vorinostat; first compound 0.06325 µM)	relative viability (Vandetanib + Vorinostat; first compound 0.2 µM)	relative viability (Vandetanib + Vorinostat; first compound 0.6325 µM)	relative viability (Vandetanib + Vorinostat; first compound 2 µM)	relative viability (CUDC-101 + Dasatinib; first compound 0.01 µM)	relative viability (CUDC-101 + Dasatinib; first compound 0.03162 µM)	relative viability (CUDC-101 + Dasatinib; first compound 0.1 µM)	relative viability (CUDC-101 + Dasatinib; first compound 0.3162 µM)	relative viability (CUDC-101 + Dasatinib; first compound 1 µM)	relative viability (CUDC-101 + Palbociclib; first compound 0.01 µM)	relative viability (CUDC-101 + Palbociclib; first compound 0.03162 µM)	relative viability (CUDC-101 + Palbociclib; first compound 0.1 µM)	relative viability (CUDC-101 + Palbociclib; first compound 0.3162 µM)	relative viability (CUDC-101 + Palbociclib; first compound 1 µM)
NCI-H1651	0.998	0.834	0.563	0.53	0.618	0.62	0.535	0.593	0.378	0.335	0.434	0.39	0.384	0.548	0.543	0.497	0.529	0.493
NCI-H1666	0.588	0.447	0.283	1.06	0.968	1.09	0.964	0.993	0.903	0.786	0.814	0.911	0.795	0.64	0.661	0.661	0.599	0.664
NCI-H1734	1.26	0.983	0.698	0.87	0.71	0.755	0.852	0.815	0.502	0.43	0.461	0.536	0.376	0.357	0.374	0.342	0.382	0.274
NCI-H1755	0.996	1.06	0.891	0.768	0.818	0.773	0.709	0.709	0.4	0.376	0.462	0.519	0.377	0.431	0.472	0.507	0.469	0.435
NCI-H1793	0.925	0.499	0.611	0.716	0.618	0.651	0.648	0.624	0.393	0.371	0.342	0.415	0.371	0.275	0.272	0.36	0.253	0.247
NCI-H1915	1.02	1.01	0.948	0.497	0.512	0.535	0.532	0.505	0.301	0.292	0.293	0.292	0.24	0.547	0.493	0.524	0.472	0.339
NCI-H1944		0.798	0.607	0.51	0.542	0.526	0.476	0.602	0.215	0.184	0.201	0.196	0.196	0.33	0.298	0.322	0.311	0.216
NCI-H1975	0.734	0.791	0.318	0.71	0.646	0.709	0.665	0.636	0.287	0.373	0.315	0.413	0.331	0.535	0.623	0.601	0.673	0.536
NCI-H1993		0.77	0.7		0.741	0.797	0.639	0.566	0.594	0.666	0.686	0.571	0.541	0.837	0.656	0.592	0.618	0.482
NCI-H2009	0.938	0.888	0.731	0.724	0.638	0.727	0.783	0.756	0.321	0.281	0.396	0.443	0.338	0.219	0.191	0.263	0.258	0.276
NCI-H2023	1.1	0.622	0.193	0.563	0.516		0.561	0.489	0.564	0.635	0.616	0.748	0.461	0.42	0.342	0.457	0.416	0.361
NCI-H2085	0.788	0.632	0.648	0.836	0.74	0.66	0.773	0.777	0.205	0.274	0.221	0.196	0.215	0.438	0.468	0.47	0.463	0.466
NCI-H2087	1.36	1.02	0.986	0.755	0.604	0.657	0.614	0.922	0.795	0.946	0.841	0.971	0.718	0.284	0.21	0.238	0.264	0.168
NCI-H2126	0.755	0.719	0.55	0.801	0.736	0.703	0.702	0.699	0.7	0.588	0.612	0.579	0.481	0.355	0.346	0.337	0.364	0.352
NCI-H2170	0.253	0.244	0.247	0.84	0.829	0.816	0.767	0.813	0.633	0.512	0.583	0.475	0.363	0.419	0.402	0.385	0.37	0.361
NCI-H2228	0.458	0.212	0.321	0.592	0.474	0.747	1.04	0.679	0.542	0.543	0.536	0.52	0.4	0.891	1.09	0.874	0.805	0.664
NCI-H2347	1	0.903	0.955	0.643	0.387	0.575	0.678	0.574	0.308	0.323	0.261	0.337	0.346	0.469	0.431	0.429	0.435	0.418
NCI-H2405	1.26	0.815	0.55	1.02	0.885	0.97	1.14	0.898	0.217	0.193	0.228	0.214	0.191	0.523	0.513	0.585	0.584	0.506
